The test system of experiment [1] is HRE-luciferase reporter (HT22 hippocampal cell line). Nature of the experiment: HRE-luc reporter assay. Type of experiment: cell-based. The note with it: Mus musculus, HT-22, 3 h; at 10 µM; read-out: HRE-luc fold activation.
Experiment [2] concerns VEGF mRNA in immature primary cortical neurons. Description: VEGF mRNA induction, real-time RT-PCR. Type of experiment: cell-based. Conditions: Fig. 4B. On the procedure: For VEGF gene expression studies, total RNA was isolated from immature primary cortical neurons, pretreated overnight with the indicated concentration of a bioactive compound, using the NucleoSpin RNA II kit (Macherey-Nagel, Bethlehem, PA) according to manufacturer’s protocol. Real-time PCR was performed in triplicate as a duplex reaction using a VEGF (Mm01281449_m1) gene expression assay with a 6-carboxyfluorescein-labeled probe, and a β actin gene expression assay with a VIC-labeled probe (Applied Biosystems, Foster City, CA), so that gene amplification could be normalized to β actin. These experiments were performed using a 7500 Real-time PCR System (Applied Biosystems) using standard PCR protocol and amplification conditions.
On the technique in general: Quantitative PCR measures a nucleic acid by following its amplification.

Experiment [3] relates to HIF1 ODD-luc reporter (SH-SY5Y cell line). Description: HIF1 ODD-luc reporter assay. The class given is cell-based. Conditions: Homo sapiens, SH-SY5Y.
Experiment [4] has as its system primary neuronal cultures treated with 5 mM HCA. Description: Glutathione depletion (HCA) model, MTT viability. The note with it: glutathione depletion model, Fig. 5. Type of experiment: cell-based, rat. On the procedure: Primary neuronal cultures were prepared from the forebrains of Sprague-Dawley rat embryos (E17) and plated on 96 well plates at a 10^6 cells/ml density. After 24 hours, cells were rinsed with warm PBS and then placed in minimum Essential Medium (MEM; Life Technologies, Grand Island, NY) containing 5 mM HCA in the presence of a compound of interest at varied concentrations. Cells were incubated for 24 h or longer to see 90% cell death in HCA treated controls. Viability was assessed by the MTT (4,5-dimethylthiazol-2-yl)-2,5-diphenyltetrazolium bromide) assay.

Experiment [5] deals with Neh2-luc reporter (SH-SY5Y cell line). Description: Neh2-luc reporter assay. The note with it: Homo sapiens, SH-SY5Y. Type of experiment: cell-based.

Structures are written as SMILES.

As a reminder, the EC50 is the concentration giving half of the maximal effect. Low readings indicate greater potency, high ones weaker potency. Take `CC(Cc1ccc(O)c(O)c1)C(C)Cc1ccc(O)c(O)c1` (stereo not shown) [compound 28, 4,4'-(2,3-dimethylbutane-1,4-diyl)dibenzene-1,2-diol]: the fold induction at 10 µM was found to be 2 ± 0.2 in experiment [1]; 2 in experiment [3] (3 h, at 10 µM, 3 h incubation, read-out: ODD-luc fold activation); 15 ± 1.8 in experiment [5] (at 10 µM, 3 h incubation, read-out: Neh2-luc fold activation). Also, the “VEGF induction potency relative to FG-4592” value in experiment [2] is recorded as “at least 2 times”. Besides, the EC50 was approximately 2000 nM in experiment [3] and 2000 nM in experiment [5] (Neh2-luc). The “concentration at which neuroprotection begins” value in experiment [4] was determined as 2.5 µM.

Source of the values: article PMC5201116, “Bioactive Flavonoids and Catechols as Hif1 and Nrf2 Protein Stabilizers - Implications for Parkinson’s Disease” (Aging and Disease, 2016).
